{"source": "patent US20230165276A1", "about": "“NOVEL USE OF SUBSTITUTED 2H-CHROMENS AND THEIR DERIVATIVES” (DSM IP ASSETS B.V., priority 2018, published 2023)", "key": {"[1]": {"assay": "Oxipres antioxidant efficacy value (EV) in pet food", "conditions": "70° C., 5 bar oxygen, 130 hours, equimolar to BHT, EV relative to BHT (EV=1)", "method": "(§1) Oxidative stability was assessed using an Oxipres (Mikrolab Aarhus A/S, Hojbjerg, Denmark). The ML OXIPRES® is designed to monitor the oxidation of heterogeneous products. Consumption of oxygen results in a pressure drop which is measured by means of pressure transducers. The samples are heated to accelerate the process and shorten the analysis time (Mikrolab Aarhus 2012).\n(§2) Sample weights were 50 g. They were loaded into the Oxipres vessels and placed inside the stainless-steel pressure vessel and sealed. The pressure vessels were purged with pure oxygen and filled to an initial oxygen pressure of 5 bar and maintained at 70° C. during measurement (D. Ying, L. Edin, L. Cheng, L. Sanguansri, M. A. Augustin, LWT-Food Science and Technology 2015, 62, 1105-1111: “Enhanced oxidative stability of extruded product containing polyunsaturated oils.”).\nThe oxygen pressure was recorded as function of time. After sample load and temperature rise the pressure in the device is increasing within 10 hours. Thereafter it is decreasing. Consequently, the starting pressure is considered to be the pressure after 10 hours. […] The oxygen consumption ‘02’ of the tested sample is calculated as follows: […]\nA factor of protection called ‘EV’ (Efficacy Value) was developed to quantify with a relative number (relative to BHT) the antioxidant effect of the tested candidates. EV was calculated as follows: […]"}, "[2]": {"assay": "Oxipres antioxidant efficacy value (EV) in poultry meal", "conditions": "70° C., 5 bar oxygen, 130 hours, equimolar to BHT, EV relative to BHT (EV=1)", "method": "as §1, §2\n(§3) The oxygen pressure was recorded as function of time. After sample load and temperature rise the pressure in the device is increasing within 10 hours. Thereafter it is decreasing. Consequently, the starting pressure is considered to be the pressure after 10 hours. The analysis ends after 130 hours at 70° C. The oxygen consumption ‘02’ of the tested sample is calculated as follows: […]\n(§4) A factor of protection called ‘EV’ (Efficacy Value) was developed to quantify with a relative number (relative to BHT) the antioxidant effect of the tested candidates. EV was calculated as follows:\n(§5) EV, being relative to BHT (3,5-di-tert-butyl-4-hydroxy-toluene) (EV=1), makes it possible to compare the antioxidant compounds in a defined feed application.\n(§6) Compounds of formulae (1) to (7) were mixed each into the matrix 1, 2 or 3 (pet food, poultry meal, fish meal) in an equimolar ratio compared to BHT. Batches of 200 g feed were produced in order to handle a minimum of 30 mg of antioxidant. First, a 1% pre-dilution of the antioxidant with the feed material was made. Then this pre-dilution was added to the final batch, mixed, sieved (1.25 mm sieve) and mixed using a turbula® mixer. Thereafter 55 g of the final batch were packed into polyethylene bags and stored at 4° C. till time of Oxipres assay. Spare sample were stored at 4° C. An efficacy value 0.7 has been considered as acceptable, an efficacy value the efficacy value of alpha-tocopherol as good, and an efficacy value the efficacy value of BHT as very good."}, "[3]": {"assay": "Oxipres antioxidant efficacy value (EV) in fish meal", "conditions": "70° C., 5 bar oxygen, 130 hours, equimolar to BHT, EV relative to BHT (EV=1)", "method": "as §1, §2, §3, §4, §5, §6"}, "Solubility in fish oil": {"assay": "Solubility in fish oil", "assay_type": "physicochemical", "method": "(§7) Two different levels of compound of formula (1) (0.5 and 2 mg/g) were used in 5 g of natural fish oil (Product Code: FG30TG) and used in the Oxidative Stability Instrument at 80° C. with the air flow rate of 40 psi. The solubility of different amounts and types of antioxidants used in 051 was checked before and after the application. […] Compound of formula (1) was used in the Oxidative Stability instruments under the same conditions used for fish oil evaluations. Also, the synergistic effect of compound of formula (1) with ascorbyl palmitate (AP) was determined using the OSI values. The polymers generated at the end of the experiment were determined by LC."}, "[4]": {"assay": "Polymers generated at the end of the fish oil stabilization experiment (LC)", "conditions": "2 mg/g in FG30TG oil, without AP", "method": "as §7\nPolymers generated at the end of the stabilization experiment of fish oil with compound of formula (1) and AP are shown in Table 11.\nPolymers are combination of complex compounds generated at the end of the oxidation cascade of unsaturated fatty acids and, they indicate the levels of overall oxidation of the matrix. The generation of such polymers in fish oil containing compound of formula (1) could be reduced considerably when AP was added as a synergistic compound (Table 11)."}, "[5]": {"assay": "Storage stability study of fish oil (PV, p-AV, CD)", "conditions": "2 mg/g in FG30TG", "method": "Tables 12, 13 and 14 show the PV (peroxide value), p-AV (p-anisidine value) and CD (conjugated dienoic acid in %) of the fish oil samples stabilized with compound of formula (1). For the storage stability study compound of formula (1) was used in fish oil at only 2 mg/g level. […] MNT had the lowest PV values. There was no considerable variation in p-AV and CD (Tables 13-14) during the storage."}, "[6]": {"assay": "Oil Stability Index (Oxidative Stability Instrument) in FG30TG fish oil", "method": "Compound of formula (1) was evaluated primarily for its oxidative stability by the Oil Stability Index measurements.\nas §7"}, "[7]": {"assay": "Oil Stability Index in crude algal oil", "method": "as §7\nThis algal oil already contained about 1.6 mg/g of MNT."}}}
{"smiles": "Cc1c(C)c2c(c(C)c1O)CC[C@@](C)(CCC[C@H](C)CCC[C@H](C)CCCC(C)C)O2", "note": "[alpha-tocopherol, reference compound]", "values": [{"measurement": "EV in pet food", "setting": "[1]", "result": 0.77}, {"measurement": "EV in poultry meal", "setting": "[2]", "result": 0.74}, {"measurement": "EV in Fish meal", "setting": "[3]", "result": 0.88}]}
{"smiles": "Cc1c(C)c2c(c(C)c1O)C=CC(C)(C)O2", "note": "[Compound of formula (4), 2,2,5,7,8-pentamethyl-2H-chromen-6-ol]", "values": [{"measurement": "EV in Fish meal", "setting": "[3]", "result": 1.10}]}
{"smiles": "O=c1ccc2cc(O)ccc2o1", "note": "[Compound of formula (6), 6-hydroxycoumarin]", "values": [{"measurement": "EV in Fish meal", "setting": "[3]", "result": 0.75}]}
{"smiles": "CC1(C)C=Cc2cc(O)ccc2O1", "note": "[Compound of formula (2), 2,2-dimethyl-2H-chromen-6-ol]", "values": [{"measurement": "EV in poultry meal", "setting": "[2]", "result": 1.11}]}
{"smiles": "Cc1cc(C(C)(C)C)c(O)c(C(C)(C)C)c1", "note": "[BHT, 3,5-di-tert-butyl-4-hydroxy-toluene, reference compound]", "values": [{"measurement": "EV in poultry meal", "setting": "[2]", "result": 1}, {"measurement": "EV in Fish meal", "setting": "[3]", "result": 1}]}
{"smiles": "CCOc1ccc2c(c1)C(C)=CC(C)(C)O2", "note": "[Compound of formula (5), 6-ethoxy-2,2,4-trimethyl-2H-chromene]", "values": [{"measurement": "EV in Fish meal", "setting": "[3]", "result": 0.77}]}
{"smiles": "CC1=CC(C)(C)Oc2ccc(O)cc21", "note": "[Compound of formula (1), 2,2,4-trimethyl-2H-chromen-6-ol]", "values": [{"measurement": "Solubility in fish oil, 80° C.", "setting": "Solubility in fish oil; Amount 0.5 mg/g", "result": "Soluble"}, {"measurement": "Solubility in fish oil, Room temp.", "setting": "Solubility in fish oil; Amount 0.5 mg/g", "result": "Soluble"}, {"measurement": "Solubility in fish oil, 80° C.", "setting": "Solubility in fish oil; Amount 2.0 mg/g", "result": "Soluble"}, {"measurement": "Solubility in fish oil, Room temp.", "setting": "Solubility in fish oil; Amount 2.0 mg/g", "result": "Soluble"}, {"measurement": "Polymers (%)", "setting": "[4]", "result": 34.67, "unit": "%"}, {"measurement": "CD (conjugated dienoic acid in %)", "setting": "[5]; 4 days", "result": 0.8, "unit": "%"}, {"measurement": "PV (peroxide value)", "setting": "[5]; 4 days", "result": 2}, {"measurement": "p-AV (p-anisidine value)", "setting": "[5]; 4 days", "result": 4.4}, {"measurement": "CD (conjugated dienoic acid in %)", "setting": "[5]; 6 days", "result": 0.8, "unit": "%"}, {"measurement": "PV (peroxide value)", "setting": "[5]; 6 days", "result": 2.6}, {"measurement": "p-AV (p-anisidine value)", "setting": "[5]; 6 days", "result": 7.2}, {"measurement": "CD (conjugated dienoic acid in %)", "setting": "[5]; 8 days", "result": 0.9, "unit": "%"}, {"measurement": "PV (peroxide value)", "setting": "[5]; 8 days", "result": 3.8}, {"measurement": "p-AV (p-anisidine value)", "setting": "[5]; 8 days", "result": 6.8}, {"measurement": "CD (conjugated dienoic acid in %)", "setting": "[5]; 11 days", "result": 0.9, "unit": "%"}, {"measurement": "PV (peroxide value)", "setting": "[5]; 11 days", "result": 6.8}, {"measurement": "p-AV (p-anisidine value)", "setting": "[5]; 11 days", "result": 7.6}, {"measurement": "CD (conjugated dienoic acid in %)", "setting": "[5]; 13 days", "result": 0.8, "unit": "%"}, {"measurement": "PV (peroxide value)", "setting": "[5]; 13 days", "result": 9.8}, {"measurement": "p-AV (p-anisidine value)", "setting": "[5]; 13 days", "result": 8.1}, {"measurement": "CD (conjugated dienoic acid in %)", "setting": "[5]; 15 days", "result": 0.8, "unit": "%"}, {"measurement": "PV (peroxide value)", "setting": "[5]; 17 days", "result": 12.1}, {"measurement": "p-AV (p-anisidine value)", "setting": "[5]; 17 days", "result": 8.5}, {"measurement": "CD (conjugated dienoic acid in %)", "setting": "[5]; Initial", "result": 0.7, "unit": "%"}, {"measurement": "PV (peroxide value)", "setting": "[5]; Initial", "result": 0.9}, {"measurement": "p-AV (p-anisidine value)", "setting": "[5]; Initial", "result": 9.9}, {"measurement": "OSI", "setting": "[6]; Table 7, 0.5 mg/g in FG30TG fish oil, 80° C., air flow 40 psi", "result": 5.95, "unit": "h"}, {"measurement": "OSI", "setting": "[6]; Table 7, 2 mg/g in FG30TG fish oil, 80° C., air flow 40 psi", "result": 6.73, "unit": "h"}, {"measurement": "Protection Factor (%)", "setting": "[6]; Table 8, 0.5 mg/g in FG30TG fish oil", "result": 25.26, "unit": "%"}, {"measurement": "Protection Factor (%)", "setting": "[6]; Table 8, 2 mg/g in FG30TG fish oil", "result": 41.58, "unit": "%"}, {"measurement": "OSI", "setting": "[6]; Table 9, 2 mg/g in FG30TG fish oil, without AP", "result": 5.70, "unit": "h"}, {"measurement": "Protection Factor (%)", "setting": "[6]; Table 10, 2 mg/g in FG30TG fish oil, without AP", "result": 23.1, "unit": "%"}, {"measurement": "EV in pet food", "setting": "[1]", "result": 0.97}, {"measurement": "EV in poultry meal", "setting": "[2]", "result": 1.10}, {"measurement": "OSI", "setting": "[7]; 0.5 mg/g added to crude algal oil already containing about 1.6 mg/g of MNT", "result": 16.60, "unit": "h"}, {"measurement": "OSI", "setting": "[7]; 2 mg/g added to crude algal oil already containing about 1.6 mg/g of MNT", "result": 18.55, "unit": "h"}, {"measurement": "EV in Fish meal", "setting": "[3]", "result": 0.94}]}
{"smiles": "CC1=CC(C)(C)Oc2c(C)c(C)c(O)c(C)c21", "note": "[Compound of formula (3), 2,2,4,5,7,8-hexamethyl-2H-chromen-6-ol]", "values": [{"measurement": "EV in Fish meal", "setting": "[3]", "result": 0.89}]}
{"smiles": "Oc1ccc2c(c1)C=CCO2", "note": "[Compound of formula (7), 2H-chromen-6-ol]", "values": [{"measurement": "EV in Fish meal", "setting": "[3]", "result": 0.72}]}
